The source of these data is patent US10294244B2, “2,3-dihydro-thiazolo[3,2-A]pyridin-5-one derivatives, intermediates thereof, and their use as antibacterial agents” (Quretech Bio AB, priority 2014, dated 2019).

This test concerns C. trachomatis serovar LGV-L2. Put plainly: Inhibition of infectious Chlamydia progenies (C. trachomatis infectivity, reinfection of HeLa cells, IFU count). The class given is cell-based. Conditions: infected HeLa cells, MOI 0.3, compound added 1 hpi, 44-48 h, relative to DMSO-treated control; for inhibition at 2.5 µM: 2.5 uM compound; for inhibition at 10 µM: 10 uM compound; for inhibition at 100 µM: 100 uM compound; for inhibition at 50 µM: 50 uM compound. As for the experimental part:
Cell Culture, C. trachomatis Infections, and Determination of C. trachomatis Infectivity.
HeLa cells were infected with C. trachomatis serovar LGV-L2 at an MOI of 0.3. At 1 hpi, RPMI media containing the different dilutions of the tested compounds in DMSO were added. The different compounds were dissolved to 20 mM in DMSO and were then diluted with RPMI media to be added at 2.5 to 100 μM. After 44-48 h incubation, the cells were osmotically lysed by the addition of cold sterile distilled water to release infectious EB progeny. 5×SPG was added to equalize the osmotic pressure to a 1×SPG isotonic condition. An equal amount of HBSS (Hanks balanced salt solution) (Gibco/Invitrogen) was added to the lysate (yielding a 1:1 dilution) and 10-fold serial dilutions of the resulting mixture was used to infect fresh HeLa cells. At 1 hpi, the inoculum was replaced with RPMI media and the infection allowed to progress for 44-48 hours before fixation and staining. Fixation was performed by adding methanol for 5 minutes and the cells were subsequently washed with phosphate buffered saline (PBS). The chlamydial inclusions were stained by a primary rabbit anti-Chlamydia antibody (generated in-house) and a secondary donkey anti-rabbit FITC-labelled antibody (Jackson ImmunoResearch). The DNA of the cells and Chlamydia was stained by the addition of DAPI. The stained cells were analyzed by an ArrayScan automated scanner (ArrayScan VTI HCS, Thermo Scientific). Data were presented as the relative numbers of IFUs in treated infections compared to the numbers of IFUs in DMSO-treated control infections.
The compounds of Examples 1-33 were tested for inhibition of infectious Chlamydia progenies at concentrations of 2.5 μM, 10 μM, 50 μM and 100 μM. In this document μM stands for micromolar. The compounds of the present disclosure were considered to have antibacterial activity if they provided 50% or more inhibition of infectious Chlamydia progenies using at least one of the tested concentrations in Table 1.

With `Cc1cccc(OCc2cc(=O)n3c(c2C2CC2)SCC3C(=O)Nc2ccccc2)c1C` (stereo not drawn) [Example 19, Anilino{7-cyclopropyl-4-oxo-6-[(2,3-xylylyloxy)methyl]-1-thia-3a-aza-3-indanyl}formaldehyde], the inhibition at 2.5 µM was 100%.

With `COc1c(Cc2cccc(C)c2C)c(N)c(=O)n2c1SC[C@H]2c1nc(-c2ccccc2)no1` [Example 14, (3R)-5-Amino-7-methoxy-3-(3-phenyl-1,2,4-oxadiazol-5-yl)-6-[(2,3-xylyl)methyl]-1-thia-3a-aza-4-indanone], the inhibition at 2.5 µM amounted to 76% and at 10 µM the inhibition was 100%.

`COc1c(Cc2cccc(C)c2C)cc(=O)n2c1SC[C@H]2c1nnc(-c2ccccc2)o1` [Example 15, (3R)-7-Methoxy-3-(5-phenyl-1,3,4-oxadiazol-2-yl)-6-[(2,3-xylyl)methyl]-1-thia-3a-aza-4-indanone]: the inhibition at 2.5 µM came out at 84% and the inhibition at 10 µM is 100%.

Regarding `COc1c(Cc2cccc3ccccc23)cc(=O)n2c1SC[C@H]2C(=O)Nc1ccc(C)cc1` [Example 2, {(3R)-7-Methoxy-6-[(1-naphthyl)methyl]-4-oxo-1-thia-3a-aza-3-indanyl}(p-toluidino)formaldehyde], at 2.5 µM the inhibition was 96% and the inhibition at 10 µM was determined as 100%.

Turning to `O=C(O)[C@@H]1CSc2c(OCC3CC3)c(Cc3cccc4ccccc34)cc(=O)n21` [Example 28, (3R)-7-(Cyclopropylmethoxy)-6-[(1-naphthyl)methyl]-4-oxo-1-thia-3a-aza-3-indancarboxylic acid], the inhibition at 100 µM came to 56%.

As to `CC(C)COc1c(Cc2cccc3ccccc23)cc(=O)n2c1SC[C@H]2C(=O)O` [Example 30, (3R)-7-Isobutoxy-6-[(1-naphthyl)methyl]-4-oxo-1-thia-3a-aza-3-indancarboxylic acid], testing at 50 µM gave an inhibition of 67% and the inhibition at 100 µM worked out at 90%.

`COc1c(Cc2cccc(C)c2C)cc(=O)n2c1SC[C@H]2C(=O)Nc1ccc(C)cc1` [Example 5, {(3R)-7-Methoxy-4-oxo-6-[(2,3-xylyl)methyl]-1-thia-3a-aza-3-indanyl}(p-toluidino)formaldehyde] came in with an inhibition at 2.5 µM of 100% and an inhibition at 10 µM of 100%.

Compound `CC(=O)Nc1c(Cc2cccc3ccccc23)cc(=O)n2c1SC[C@H]2C(=O)Nc1ccccc1` [Example 26, 1-{3-Anilinocarbonyl-6-[(1-naphthyl)methyl]-4-oxo-1-thia-3a-aza-7-indanylamino}-1-ethanone] had an inhibition at 10 µM of 54% and an inhibition at 50 µM of 87%.

With `CC(C)Nc1c(Cc2cccc3ccccc23)cc(=O)n2c1SC[C@H]2C(=O)Nc1ccccc1` [Example 23, Anilino{7-(isopropylamino)-6-[(1-naphthyl)methyl]-4-oxo-1-thia-3a-aza-3-indanyl}formaldehyde], the inhibition at 10 µM came to 98% and testing at 50 µM gave an inhibition of 98%.

In the case of `COC(=O)Nc1c(Cc2cccc3ccccc23)cc(=O)n2c1SC[C@H]2C(=O)Nc1ccccc1` [Example 27, {(3R)-7-(Methoxycarbonylamino)-6-[(1-naphthyl)methyl]-4-oxo-1-thia-3a-aza-3-indanyl}anilinoformaldehyde], the inhibition at 10 µM turned out to be 96% and the inhibition at 50 µM was 98%.

The inhibition is the change of the read-out against control, counted positive when it falls.
